Results on 16 compounds are retold here after PubChem BioAssay (NCI).

Some test systems named below: HCT-116 colon; NCI-H226 lung; COLO 205 colon; NCI-H460 lung; SW-620 colon; OVCAR-3 ovarian; HCT-15 colon; M14 melanoma; K-562 leukemia.
What all share (assay): inhibition of tumour cell growth, NCI panel, 48 h

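Cultured in 96-well plates, cells were exposed to test compound for 48 hours across five concentrations. TGI denotes the concentration required for complete inhibition of growth.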

Turning to `COc1cc(Nc2cnc3cc(C(F)(F)F)ccc3n2)cc(OC)c1OC`, the TGI with HCT-116 colon, in the assay with NCI-H226 lung, in the assay with COLO 205 colon, with NCI-H460 lung, in the assay with SW-620 colon and in the assay on OVCAR-3 ovarian was > 100 µM throughout. For the same compound, in the assay on HCT-15 colon, the TGI is > 100 µM.

For the compound `CCCc1c2c([nH]c(=O)c1C)C(=O)c1[nH]c(=O)c(C)c(CCC)c1C2=O`, the TGI in the assay with HCT-116 colon was 36.7 µM; with NCI-H226 lung it was > 100 µM; in the assay on M14 melanoma, 17.3 µM; with K-562 leukemia it was 67.1 µM; in the assay with COLO 205 colon, 55.1 µM; in the assay with NCI-H460 lung it was 77.3 µM. Moreover, the TGI came to 20.2 µM in the assay with SW-620 colon, 5.97 µM in the assay with OVCAR-3 ovarian and 58.3 µM with HCT-15 colon.

On to `CCCCCCCCCCCCCS(=O)(=O)O`, for which the TGI in the assay on HCT-116 colon, in the assay with NCI-H226 lung, with M14 melanoma, in the assay on COLO 205 colon, in the assay on NCI-H460 lung and in the assay with SW-620 colon was > 100 µM in each case. The TGI with OVCAR-3 ovarian and with HCT-15 colon was > 100 µM in each case.

Regarding `O=C(O)c1ccc(NC(=O)C2C(=O)C(=O)N(c3ccc(C(=O)O)cc3)C2=O)cc1` (stereo not given), the TGI in the assay with HCT-116 colon, in the assay with NCI-H226 lung, in the assay on K-562 leukemia, with COLO 205 colon, with NCI-H460 lung and with SW-620 colon was > 100 µM throughout. Besides, the TGI in the assay with OVCAR-3 ovarian and in the assay on HCT-15 colon was > 100 µM in each case.

In the case of `CCN(CC)CCCN(c1cc(OC)cc2nccnc12)S(=O)(=O)c1ccc(C)cc1`, the TGI in the assay with NCI-H226 lung, in the assay with M14 melanoma, in the assay with K-562 leukemia, with COLO 205 colon, in the assay on NCI-H460 lung and in the assay on SW-620 colon was > 100 µM in each case. Besides, the TGI in the assay on OVCAR-3 ovarian and in the assay on HCT-15 colon was > 100 µM throughout.

As for `O=C1C2C(C(=O)N1O)N(Cc1ccccc1)C(=O)N2Cc1ccccc1` (stereo not given), the TGI with HCT-116 colon, with NCI-H226 lung, in the assay on M14 melanoma, in the assay on K-562 leukemia, with COLO 205 colon and with NCI-H460 lung was > 100 µM each time. The TGI in the assay with SW-620 colon, in the assay on OVCAR-3 ovarian and in the assay on HCT-15 colon was > 100 µM throughout.

With `CC[C@@H]1C[C@@H]2CN3CCc4c([nH]c5ccc(OC)cc45)C(COC(=O)c4ccc(OC)c(OC)c4)(C2)C13`, the TGI was 44 µM in the assay with HCT-116 colon; 33.8 µM in the assay with NCI-H226 lung; 41.8 µM with M14 melanoma; 43 µM with K-562 leukemia; > 100 µM in the assay with COLO 205 colon; 84.1 µM in the assay with NCI-H460 lung. The figures for the TGI in the assay on SW-620 colon, with OVCAR-3 ovarian and in the assay on HCT-15 colon were 40.1 µM, > 100 µM and > 100 µM, respectively.

In the case of `C/C(=N\NC(=S)N1CCCCCC1)c1nccnc1C`, the TGI in the assay with M14 melanoma is 0.654 µM; with K-562 leukemia it was > 100 µM; with SW-620 colon it was > 100 µM; with HCT-15 colon, > 100 µM.

On to `COc1nc2c(OC)cccc2c(OC)c1C=O`, for which the TGI in the assay with HCT-116 colon, with NCI-H226 lung, in the assay on M14 melanoma, in the assay with K-562 leukemia, in the assay on COLO 205 colon and in the assay on NCI-H460 lung was > 100 µM in each case. Besides, the TGI with SW-620 colon, in the assay on OVCAR-3 ovarian and in the assay on HCT-15 colon was > 100 µM in each case.

Turning to `O=C(Nc1ccc(Cl)c(C(F)(F)F)c1)C(=O)C(C(=O)/C=C/c1ccccc1)C1OC(=O)c2ccccc21` (stereo not given), the TGI with HCT-116 colon, with NCI-H226 lung, in the assay on M14 melanoma, in the assay with K-562 leukemia, in the assay on COLO 205 colon and in the assay with NCI-H460 lung was > 100 µM each time. Further, the TGI in the assay on SW-620 colon, in the assay on OVCAR-3 ovarian and in the assay with HCT-15 colon was > 100 µM in each case.

Regarding `CC(C)C(C(=O)O)N(CC1(O)OCC(O)C(O)C1O)N=O` (stereo not given), the TGI with HCT-116 colon, in the assay with M14 melanoma, in the assay on K-562 leukemia, with COLO 205 colon, in the assay on NCI-H460 lung and with SW-620 colon was > 100 µM throughout. Also, in the assay on OVCAR-3 ovarian, the TGI is > 100 µM.

As for `COc1cccc(N2C(=O)c3c(c4[nH]c5ccccc5c4c4ccc(C(C)(C)C)cc34)C2=O)c1`, the TGI in the assay with HCT-116 colon, with NCI-H226 lung, in the assay with M14 melanoma, in the assay with K-562 leukemia, in the assay with COLO 205 colon and in the assay on NCI-H460 lung was > 100 µM each time. Also, the TGI in the assay on SW-620 colon, with OVCAR-3 ovarian and with HCT-15 colon was > 100 µM each time.

Consider `CN/N=C(/Cc1occc(=O)c1O)C(=O)Nc1ccc(C)c(C)c1`, for which the TGI in the assay with HCT-116 colon, with NCI-H226 lung, in the assay with M14 melanoma, in the assay with K-562 leukemia, with COLO 205 colon and in the assay with NCI-H460 lung was > 100 µM in each case. Also, the TGI in the assay with SW-620 colon, in the assay on OVCAR-3 ovarian and with HCT-15 colon was > 100 µM throughout.

As for `Cc1ccc(S(=O)(=O)N/N=C(\CCN2CCCC2)CC(c2ccccc2)c2c(O)c3ccccc3oc2=O)cc1` (stereo not given), the TGI with HCT-116 colon, in the assay with NCI-H226 lung, with M14 melanoma, with K-562 leukemia, in the assay with NCI-H460 lung and in the assay on SW-620 colon was > 100 µM each time. For the same compound, the TGI in the assay with OVCAR-3 ovarian and in the assay on HCT-15 colon was > 100 µM each time.

For `C/C(=N\N=C(N)N)C(CN(CC(C)C)CC(C)C)C(=O)Nc1ccc(C)cc1C` (stereo not given), the TGI with HCT-116 colon, with NCI-H226 lung, in the assay on M14 melanoma, in the assay with K-562 leukemia, in the assay on COLO 205 colon and in the assay with NCI-H460 lung was > 100 µM each time. In addition, the TGI in the assay on SW-620 colon, in the assay with OVCAR-3 ovarian and in the assay on HCT-15 colon was > 100 µM in each case.

In the case of `CC(C)(C)NNC(=O)/C(=C/c1ccc(Oc2ccc(Cl)c(Cl)c2)cc1)NC(=O)c1ccccc1`, the TGI with HCT-116 colon was > 100 µM; with NCI-H226 lung it was > 100 µM; with M14 melanoma, > 100 µM; in the assay with K-562 leukemia, > 100 µM; in the assay on COLO 205 colon it was 36.8 µM; in the assay with NCI-H460 lung, > 100 µM. In addition, the TGI in the assay with OVCAR-3 ovarian and in the assay on HCT-15 colon was > 100 µM in each case.
